Values quoted from earlier work in patent publication EP3051247B1, “CHEMICAL CLEANING PROCEDURE FOR HEAT EXCHANGERS” (GD Energy Services S.a.r.l., priority 2013, dated 2015).

Conditions: for pKa1: first acid dissociation step (AH3 → AH2^- + H^+; BH2 → BH^- + H^+); for pKa2: second acid dissociation step (AH2^- → AH^2- + H^+; BH^- → B^2- + H^+)

Row | SMILES | pKa1 | pKa2 | pKa3 (third acid dissociation step (AH^2- → A^3- + H^+))
1 | O=C(O)CC(O)(CC(=O)O)C(=O)O [Citric acid] | pKa1 = 3.15 | pKa2 = 4.77 | pKa3 = 6.40
2 | O=C1O[C@H]([C@@H](O)CO)C(O)=C1O [Ascorbic acid] | pKa1 = 4.1 | pKa2 = 11.4 | 
